Data reported in patent US10538516B2, “Oxadiazole derivative and pharmaceutical containing same” (National Center for Geriatrics and Gerontology, priority 2015, dated 2020).

Biological target: T1, GAβ-dependent amyloid fibril formation (Human Aβ1-40 + GM1-containing liposome) (Homo sapiens, UniProt P05067)
T1 construct: Human Aβ1-40 (cat. #4307-v, prepared by Peptide Institute); purchased Peptide Institute 4307-v
Assay: Thioflavin T (ThT) assay of GAβ-dependent amyloid fibril formation (Aβ1-40 with GM1-containing liposome)
Format: biochemical
Details: @25 μM; read-out: ThT Inhibitory activity (% inhibition)
Summary of the method: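 Human Aβ1-40 (75 μM stock) pre-incubated 10 min at room temperature with compound (75 or 15 μM solution), then GM1-containing cholesterol/sphingomyelin liposome added and incubated 37° C, 18 hours. Fibrils quantified by ThT fluorescence (ex 430/em 490 nm, pH 8.5 glycine buffer); inhibition as ratio to compound-free control.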

T1 sequence (P05067 672-711 limits assumed): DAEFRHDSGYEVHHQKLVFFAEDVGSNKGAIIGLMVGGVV

| inhibition at 25 µM | SMILES |
| --- | --- |
| 73% | O=C(N[C@@H](CO)c1nc(-c2ccccc2C(F)(F)F)no1)c1ccc(F)cc1 [Compound 181, 4-fluoro-N-[(1S)-2-hydroxy-1-{3-[2-(trifluoromethyl)phenyl]-1,2,4-oxadiazol-5-yl}ethyl]benzamide] |
| 88% | O=C(N[C@@H](CO)c1nc(-c2ccc(C(F)(F)F)cc2)no1)c1ccc(F)cc1 [Compound 133, (S)-4-fluoro-N-(2-hydroxy-1-(3-(4-(trifluoromethyl)phenyl)-1,2,4-oxadiazol-5-yl)ethyl)benzamide] |
| 89% | O=C(N[C@@H](CO)c1nc(-c2c[nH]c3ccccc23)no1)c1ccc(F)cc1 [Compound 211, 4-fluoro-N-[(1S)-2-hydroxy-1-[3-(1H-indol-3-yl)-1,2,4-oxadiazol-5-yl]ethyl]benzamide] |
| 70% | O=C(N[C@@H](CO)c1nc(-c2ccc(C(F)(F)F)cc2)no1)c1c(F)cccc1F [Compound 197, 2,6-difluoro-N-[(1S)-2-hydroxy-1-{3-[4-(trifluoromethyl)phenyl]-1,2,4-oxadiazol-5-yl}ethyl]benzamide] |
| 63% | COc1ccc2nc(-c3noc([C@H](CO)NC(=O)c4ccc(F)cc4)n3)sc2c1 [Compound 235, 4-fluoro-N-[(1S)-2-hydroxy-1-[3-(6-methoxy-1,3-benzothiazol-2-yl)-1,2,4-oxadiazol-5-yl]ethyl]benzamide] |

Same assay, conditions: final concentration of the compound 25 μM; ratio of ThT fluorescence intensity with/without compound; 37° C. for 18 hours; read-out: inhibition rate against amyloid fibril formation (inhibitory activity on a scale of A to C)

| inhibition at 25 µM | SMILES |
| --- | --- |
| > 80% | O=C(N[C@@H](CO)c1nc(-c2ccc(C(F)(F)F)cc2)no1)c1ccc(F)cc1 [Compound 133, (S)-4-fluoro-N-(2-hydroxy-1-(3-(4-(trifluoromethyl)phenyl)-1,2,4-oxadiazol-5-yl)ethyl)benzamide] |

Same assay, conditions: inhibition rate against amyloid fibril formation, final concentration of the compound 25 μM; 25 µM

| Inhibitory activity ABC evaluation | SMILES |
| --- | --- |
| A (80% or more was evaluated as A) | O=C(N[C@@H](CO)c1nc(-c2ccc(C(F)(F)F)cc2)no1)c1ccc(F)cc1 [Compound 133, (S)-4-fluoro-N-(2-hydroxy-1-(3-(4-(trifluoromethyl)phenyl)-1,2,4-oxadiazol-5-yl)ethyl)benzamide] |

Same assay, conditions: inhibition rate against amyloid fibril formation, final concentration of the compound 25 μM; read-out: Inhibitory activity ABC evaluation

| inhibition at 25 µM | SMILES |
| --- | --- |
| 40 to 80% | O=C(N[C@@H](CO)c1nc(-c2ccccc2C(F)(F)F)no1)c1ccc(F)cc1 [Compound 181, 4-fluoro-N-[(1S)-2-hydroxy-1-{3-[2-(trifluoromethyl)phenyl]-1,2,4-oxadiazol-5-yl}ethyl]benzamide] |
| > 80% | O=C(NC(CO)c1nc(-c2ccc(C(F)(F)F)cc2)no1)c1ccc(C(F)(F)F)cc1 (stereo not drawn) [Compound 188, N-(2-hydroxy-1-{3-[4-(trifluoromethyl)phenyl]-1,2,4-oxadiazol-5-yl}ethyl)-4-(trifluoromethyl) benzamide] |
| 40 to 80% | Nc1n[nH]cc1-c1noc([C@H](CO)NC(=O)c2ccc(F)cc2)n1 [Compound 257, N-[(1S)-1-[3-(3-amino-1H-pyrazol-4-yl)-1,2,4-oxadiazol-5-yl]-2-hydroxyethyl]-4-fluorobenzamide] |
| > 80% | O=C(N[C@@H](CO)c1nc(-c2c[nH]c3ccccc23)no1)c1ccc(F)cc1 [Compound 211, 4-fluoro-N-[(1S)-2-hydroxy-1-[3-(1H-indol-3-yl)-1,2,4-oxadiazol-5-yl]ethyl]benzamide] |
| 40 to 80% | O=C(N[C@@H](CO)c1nc(-c2cc(F)cc(F)c2)no1)c1ccc(F)cc1 [Compound 218, N-[(1S)-1-[3-[3,5-difluorophenyl)-1,2,4-oxadiazol-5-yl]-2-hydroxyethyl]-4-fluorobenzamide] |
| 40 to 80% | COc1ccc2[nH]cc(-c3noc([C@H](CO)NC(=O)c4ccc(F)cc4)n3)c2c1 [Compound 261, 4-fluoro-N-[(1S)-2-hydroxy-1-[3-(5-methoxy-1H-indol-3-yl)-1,2,4-oxadiazol-5-yl]ethyl] benzamide] |
| > 80% | O=C(N[C@@H](CO)c1nc(-c2ccc(C(F)(F)F)s2)no1)c1ccc(F)cc1 [Compound 210, 4-fluoro-N-[(1S)-2-hydroxy-1-{3-[5-(trifluoromethyl)thiophen-2-yl]-1,2,4-oxadiazol-5-yl}ethyl] benzamide] |
| 40 to 80% | O=C(N[C@@H](CO)c1nc(-c2ccc(C(F)(F)F)cc2)no1)c1ccc2[nH]nnc2c1 [Compound 238, N-[(1S)-2-hydroxy-1-{3-[4-(trifluoromethyl)phenyl]-1,2,4-oxadiazol-5-yl}ethyl]-1H-1,2,3-benzotriazole-5-carboxamide] |
| > 80% | CN(C)c1ccc(C(=O)N[C@@H](CO)c2nc(-c3ccc(C(F)(F)F)cc3)no2)cc1 [Compound 209, 4-(dimethylamino)-N-[(1S)-2-hydroxy-1-{3-[4-(trifluoromethyl)phenyl]-1,2,4-oxadiazol-5-yl}ethyl]benzamide] |
| 40 to 80% | O=C(N[C@@H](CO)c1nc(-c2ccc(CF)cc2)no1)c1ccccc1 [Compound 162, N-[(1S)-1-{3-[4-(fluoromethyl)phenyl]-1,2,4-oxadiazol-5-yl}-2-hydroxyethyl] benzamide] |
| 40 to 80% | O=C(N[C@@H](CO)c1nc(-c2ccc(C(F)(F)F)cc2)no1)c1c(F)cccc1F [Compound 197, 2,6-difluoro-N-[(1S)-2-hydroxy-1-{3-[4-(trifluoromethyl)phenyl]-1,2,4-oxadiazol-5-yl}ethyl]benzamide] |
| < 40% | O=C(N[C@@H](CO)c1nc(-c2ccc(C(F)(F)F)cc2)no1)c1cn2ccccc2n1 [Compound 240, N-[(1S)-2-hydroxy-1-{3-[4-(trifluoromethyl)phenyl]-1,2,4-oxadiazol-5-yl}ethyl]imidazo[1,2-a]pyridine-2-carboxamide] |
| 40 to 80% | COc1ccc2nc(-c3noc([C@H](CO)NC(=O)c4ccc(F)cc4)n3)sc2c1 [Compound 235, 4-fluoro-N-[(1S)-2-hydroxy-1-[3-(6-methoxy-1,3-benzothiazol-2-yl)-1,2,4-oxadiazol-5-yl]ethyl]benzamide] |
| 40 to 80% | O=C(N[C@@H](CO)c1nc(-c2ccc(C(F)(F)F)cn2)no1)c1ccc(F)cc1 [Compound 204, 4-fluoro-N-[(1S)-2-hydroxy-1-{3-[5-(trifluoromethyl)pyridin-2-yl]-1,2,4-oxadiazol-5-yl}ethyl]benzamide] |
| 40 to 80% | O=C(N[C@@H](CO)c1nc(-c2c[nH]c3ccc(Cl)cc23)no1)c1ccc(N2CCCC2)cc1 [Compound 253, N-[(1S)-1-[3-(5-chloro-1H-indol-3-yl)-1,2,4-oxadiazol-5-yl]-2-hydroxyethyl]-4-(pyrrolidin-1-yl) benzamide] |
| 40 to 80% | O=C(N[C@@H](CO)c1nc(-c2c[nH]c3ccc(Cl)cc23)no1)c1ccc(Cl)cn1 [Compound 254, 5-chloro-N-[(1S)-1-[3-(5-chloro-1H-indol-3-yl)-1,2,4-oxadiazol-5-yl]-2-hydroxyethyl] pyridine-2-carboxamide] |
| 40 to 80% | O=C(NC(CO)c1nc(-c2ccc(C(F)(F)F)cc2)no1)c1n[nH]c2ccccc12 (stereo not drawn) [Compound 186, N-(2-hydroxy-1-{3-[4-(trifluoromethyl)phenyl]-1,2,4-oxadiazol-5-yl}ethyl)-1H-indazole-3-carboxamide] |

The next lines start with the molecule.

| SMILES | inhibition at 25 µM |
| --- | --- |
| O=C1CC(CO)(c2nc(-c3ccc(O)c(F)c3)no2)CN1c1ccc(Cl)cc1 (stereo not drawn) [Compound 90, 1-(4-chlorophenyl)-4-{3-(3-fluoro-4-hydroxyphenyl)-1,2,4-oxadiazol-5-yl}-4-(hydroxy-methyl)pyrrolidin-2-one] | 40 to 80% |
| O=C(c1ccc(Cl)cc1)N1CC[C@H](O)[C@H]1c1nc(-c2ccc(OC(F)(F)F)cc2)no1 [Compound 131, (4-chlorophenyl) ((2S,3S)-3-hydroxy-2-(3-(4-(trifluoro-methoxy)phenyl)-1,2,4-oxadiazol-5-yl)pyrrolidin-1-yl)methanone] | 40 to 80% |
| CS(=O)(=O)Nc1ccc(-c2nnc([C@H](CO)NC(=O)c3ccc(Cl)cc3)o2)cc1 [Compound 105, (S)-4-chloro-N-(2-hydroxy-1-(5-(4-(methyl-sulfonamido)phenyl)-1,3,4-oxadiazol-2-yl)ethyl)benzamide] | < 40% |
| O=C(c1c[nH]c2ccccc12)N1C[C@H](O)C[C@H]1c1nc(-c2ccc(OC(F)(F)F)cc2)no1 [Compound 47, ((2S,4R)-4-hydroxy-2-[3-{4-(trifluoro-methoxy)phenyl}-1,2,4-oxadiazol-5-yl]pyrrolidin-1-yl)(1H-indol-3-yl)methanone] | < 40% |
| O=C1CC(c2nc(-c3ccc(OC(F)(F)F)cc3)ns2)CN1c1ccc(Cl)cc1 (stereo not drawn) [Compound 121, 1-(4-chlorophenyl)-4-{3-[4-(trifluoromethoxy)phenyl]-1,2,4-thiadiazol-5-yl}pyrrolidin-2-one] | 40 to 80% |
| NCC(NC(=O)c1ccc(Cl)cc1)c1nnc(-c2ccc(OC(F)(F)F)cc2)o1 (stereo not drawn) [Compound 116, N-(2-amino-1-{5-[4-(trifluoromethoxy)phenyl]-1,3,4-oxadiazol-2-yl}ethyl)-4-chlorobenzamide] | > 80% |
| COc1ccc(-c2noc(C3CC(=O)N(c4ccc(Cl)cc4)C3)n2)cn1 (stereo not drawn) [Compound 54, 1-(4-chlorophenyl)-4-{3-(6-methoxy-pyridin-3-yl)-1,2,4-oxadiazol-5-yl}pyrrolidin-2-one] | 40 to 80% |
| CN(C(=O)CCc1nc(-c2ccc(OC(F)(F)F)cc2)no1)c1cccc(Cl)c1 [Compound 11, N-(3-chlorophenyl)-N-methyl-3-[3-{4-(trifluoromethoxy)phenyl}-1,2,4-oxadiazol-5-yl]propanamide] | 40 to 80% |
| O=C(CCc1nc(-c2ccc3c(c2)OCCO3)no1)N1CCc2ccccc2C1 [Compound 17, 3-{3-(2,3-dihydrobenzo[b][1,4]dioxin-6-yl)-1,2,4-oxadiazol-5-yl}-1-{3,4-dihydroisoquinolin-2(1H)-yl}propan-1-one] | 40 to 80% |
| O=C(N[C@@H](CO)c1nc(-c2ccc(OC(F)(F)F)cc2)no1)c1ccc(O)c(Cl)c1 [Compound 98, (S)-3-chloro-4-hydroxy-N-(2-hydroxy-1-[3-{4-(trifluoromethoxy)phenyl}-1,2,4-oxadiazol-5-yl]ethyl)benzamide] | < 40% |
| CCCN(Cc1cccc(Cl)c1)C(=O)CCc1nc(-c2ccc(OC)cc2)no1 [Compound 9, N-(3-chlorobenzyl)-3-{3-(4-methoxyphenyl)-1,2,4-oxadiazol-5-yl}-N-propylpropanamide] | 40 to 80% |
| NC(=O)C[C@H](NC(=O)c1ccc(Cl)cc1)c1nc(-c2ccc(OC(F)(F)F)cc2)no1 [Compound 86, (S)-N-(3-amino-3-oxo-1-{3-[4-(trifluoromethoxy)phenyl]-1,2,4-oxadiazol-5-yl}propyl)-4-chlorobenzamide] | < 40% |
| O=C1CC(c2nc(-c3ccc(OC(F)(F)F)cc3)no2)CN1c1ccc(Cl)cc1 (stereo not drawn) [Compound 23, l-(4-chlorophenyl)-4-[3-{4-(trifluoromethoxy)phenyl}-1,2,4-oxadiazol-5-yl]pyrrolidin-2-one] | 40 to 80% |
| NC(Cc1ccc(O)cc1)c1nc(-c2ccc(OC(F)(F)F)cc2)no1 (stereo not drawn) [Compound 38, 4-(2-amino-2-[3-{4-(trifluoromethoxy)phenyl}-1,2,4-oxadiazol-5-yl]ethyl)phenol] | 40 to 80% |
| O=C1CC(c2ncc(-c3ccc(OC(F)(F)F)cc3)[nH]2)CN1c1ccc(Cl)cc1 (stereo not drawn) [Compound 124, 1-(4-chlorophenyl)-4-{5-[4-(trifluoromethoxy)phenyl]-1H-imidazol-2-yl}pyrrolidin-2-one] | < 40% |
